According to patent US7381705B2, “Inhibitors of hepatitis C virus” (The Administrators Of The Tulane Educational Fund, priority 2004, dated 2008):
Like-named read-outs stand apart in the source and are kept apart here. Ends that are not written are not given here. Peptide text beside a SMILES is read from it.

Test system: HCV pseudotype (HIV core proteins, HCV E1 and E2 of strain H77)
Details: for Percent inhibition: 25 μM; for Inhibition of HCV pseudotype infectivity (in words): summary of Tables 7 and 8
[1] = HCV H77 1a E2 peptides at ~25 μM, Table 7, virus alone 448,123
[2] = HCV J4 1b E2 peptides at ~25 μM, Table 8, controls as in Table 7

| Compound | Percent inhibition [%] | Luciferase units [1] | Luciferase units [2] | Inhibition of HCV pseudotype infectivity (in words) |
| --- | --- | --- | --- | --- |
| SSGCPERLASCRRLTDFA [compound 10] | 25.4 | 334,196 luciferase units (lumens) | – | – |
| GPISYANGSGLDERPYCW [compound 13, GPISYANGSGLDERPYCW] | 31.1 | 313,323 luciferase units (lumens) | – | – |
| ARVCACLWMMLLIAQAEA [compound 121] | 24.5 | – | 338,200 luciferase units (lumens) | – |
| CC(C)C[C@H](NC(=O)[C@H](CCC(=O)O)NC(=O)[C@H](CO)NC(=O)[C@H](CCCNC(=N)N)NC(=O)[C@H](CC(=O)O)NC(=O)[C@H](CCCNC(=N)N)NC(=O)[C@H](CC(=O)O)NC(=O)[C@H](CCC(=O)O)NC(=O)[C@H](CC(C)C)NC(=O)[C@H](CC(N)=O)NC(=O)[C@H](CS)NC(=O)[C@H](CCCNC(=N)N)NC(=O)[C@H](CCC(=O)O)NC(=O)CNC(=O)[C@H](CCCNC(=N)N)NC(=O)[C@@H](NC(=O)[C@H](Cc1c[nH]c2ccccc12)NC(=O)[C@@H](N)CC(N)=O)[C@@H](C)O)C(=O)O [compound 112, NWTRGERCNLEDRDRSEL] | −17.8 | – | 527,950 luciferase units (lumens) | – |
| GRTTAGLVGLLTPGAKQN [peptide 3, GRTTAGLVGLLTPGAKQN] | 0.05 | 447,906 luciferase units (lumens) | – | – |
| CDLEDRDRSELSPLLLST [compound 38, CDLEDRDRSELSPLLLST] | 23.0 | 345,110 luciferase units (lumens) | – | – |
| TDRSGVPTYSWGENETDV [compound 96, TDRSGVPTYSWGENETDV] | −21.5 | – | 544,596 luciferase units (lumens) | – |
| CC(C)C[C@H](NC(=O)[C@H](CC(C)C)NC(=O)[C@H](CC(C)C)NC(=O)[C@@H]1CCCN1C(=O)[C@H](CO)NC(=O)[C@H](CC(C)C)NC(=O)[C@H](CCC(=O)O)NC(=O)[C@H](CO)NC(=O)[C@H](CCCNC(=N)N)NC(=O)[C@H](CC(=O)O)NC(=O)[C@H](CCCNC(=N)N)NC(=O)[C@H](CC(=O)O)NC(=O)[C@H](CCC(=O)O)NC(=O)[C@H](CC(C)C)NC(=O)[C@H](CC(N)=O)NC(=O)[C@@H](N)CS)C(=O)N[C@@H](CO)C(=O)N[C@H](C(=O)O)[C@@H](C)O [compound 113, CNLEDRDRSELSPLLLST] | −27.3 | – | 570,553 luciferase units (lumens) | – |
| CSCC[C@H](NC(=O)[C@H](Cc1c[nH]c2ccccc12)NC(=O)[C@@H](NC(=O)[C@H](CS)NC(=O)CNC(=O)[C@H](Cc1ccccc1)NC(=O)[C@H](Cc1c[nH]c2ccccc12)NC(=O)[C@H](CC(N)=O)NC(=O)CNC(=O)[C@H](CCC(N)=O)NC(=O)[C@@H]1CCCN1C(=O)[C@@H]1CCCN1C(=O)[C@H](CCCNC(=N)N)NC(=O)[C@@H](NC(=O)[C@H](CC(N)=O)NC(=O)[C@@H](N)CC(N)=O)[C@@H](C)O)[C@@H](C)O)C(=O)N[C@@H](CC(N)=O)C(=O)N[C@@H](CO)C(=O)O [compound 99, NNTRPPQGNWFGCTWMNS] | 75.2 | – | 111,043 luciferase units (lumens) | – |
| DTDVFVLNNTRPPLGNWF [compound 21, DTDVFVLNNTRPPLGNWF] | 45.9 | 242,223 luciferase units (lumens) | – | – |
| MASCRPIDWFAQGWGPIT [compound 88, MASCRPIDWFAQGWGPIT] | 7.9 | – | 412,776 luciferase units (lumens) | – |
| AGVDAETHVTGGSAGRTT [peptide 1, AGVDAETHVTGGSAGRTT] | 44.1 | 250,376 luciferase units (lumens) | – | – |
| CC[C@H](C)[C@H](NC(=O)CNC(=O)[C@H](CS)NC(=O)[C@@H]1CCCN1C(=O)[C@H](CCCNC(=N)N)NC(=O)[C@@H]1CCCN1)C(=O)N[C@H](C(=O)N1CCC[C@H]1C(=O)N[C@@H](C)C(=O)N[C@@H](CCCCN)C(=O)N[C@@H](CO)C(=O)N[C@H](C(=O)N[C@@H](CS)C(=O)NCC(=O)N1CCC[C@H]1C(=O)N[C@H](C(=O)N[C@@H](Cc1ccc(O)cc1)C(=O)N[C@@H](CS)C(=O)O)C(C)C)C(C)C)C(C)C [compound 16, PRPCGIVPAKSVCGPVYC] (H-PRPCGIVPAKSVCGPVYC-OH; N-terminus and C-terminus assumed) | 10.0 | 403,430 luciferase units (lumens) | – | – |
| GNRILICPTDCFRKHPEA [compound 103] | 31.8 | – | 305,690 luciferase units (lumens) | – |
| AGVDGETHTTGRVAGHTT [compound 54, AGVDGETHTTGRVAGHTT] | 17.9 | – | 372,393 luciferase units (lumens) | – |
| TSLFSSGASQKIQLVNTN [compound 82, TSLFSSGASQKIQLVNTN] | 61.4 | – | 173,156 luciferase units (lumens) | – |
| PTDCFRKHPEATYTKCGS [compound 104] | 6.3 | – | 419,876 luciferase units (lumens) | – |
| DYPYRLWHYPCTINYTIF [compound 32, DYPYRLWHYPCTINYTIF] | 81.0 | 85,086 luciferase units (lumens) | – | inhibitory |
| CC(C)C[C@H](NC(=O)[C@H](C)NC(=O)[C@H](C)NC(=O)[C@H](Cc1ccccc1)NC(=O)[C@H](Cc1ccccc1)NC(=O)CNC(=O)[C@@H](NC(=O)[C@H](CCC(N)=O)NC(=O)[C@H](CC(C)C)NC(=O)[C@H](CO)NC(=O)[C@H](CC(=O)O)NC(=O)[C@H](CC(N)=O)NC(=O)[C@H](CS)NC(=O)[C@@H](N)CC(N)=O)[C@@H](C)O)C(=O)N[C@@H](Cc1ccccc1)C(=O)N[C@@H](Cc1ccc(O)cc1)C(=O)N[C@@H](C)C(=O)N[C@@H](Cc1c[nH]cn1)C(=O)O [compound 85, NCNDSLQTGFFAALFYAH] | 74.9 | – | 112,260 luciferase units (lumens) | – |

| Compound | Percent inhibition [%] | Luciferase units [1] | Luciferase units [2] | Inhibition of HCV pseudotype infectivity (in words) |
| --- | --- | --- | --- | --- |
| CC(C)[C@H](NC(=O)[C@@H](NC(=O)[C@@H]1CCCN1C(=O)[C@H](CO)NC(=O)[C@@H]1CCCN1C(=O)[C@@H](NC(=O)[C@H](Cc1ccccc1)NC(=O)[C@H](CS)NC(=O)[C@H](Cc1ccc(O)cc1)NC(=O)[C@@H](NC(=O)[C@@H]1CCCN1C(=O)CNC(=O)[C@H](CS)NC(=O)[C@@H](NC(=O)[C@H](CO)NC(=O)[C@H](CCCCN)NC(=O)[C@H](C)NC(=O)[C@@H]1CCCN1)C(C)C)C(C)C)[C@@H](C)O)C(C)C)C(=O)O [compound 17, PAKSVCGPVYCFTPSPVV] (H-PAKSVCGPVYCFTPSPVV-OH; N-terminus and C-terminus assumed) | 43.2 | 254,516 luciferase units (lumens) | – | – |
| GNNTLLCPTDCFRKHPEA [compound 27] | −28.4 | 575,206 luciferase units (lumens) | – | – |
| PNSSDQRPYCWHYAPRPC [compound 90] | 5.5 | – | 423,326 luciferase units (lumens) | – |
| SIASWAIKWEYVVLLFLL [compound 46, SIASWAIKWEYVVLLFLL] | 77.0 | 103,040 luciferase units (lumens) | – | inhibitory |
| GHTTSGFTSLFSSGASQK [compound 81, GHTTSGFTSLFSSGASQK] | −7.3 | – | 480,623 luciferase units (lumens) | – |
| YLYGVGSSIASWAIKWEY [compound 45, YLYGVGSSIASWAIKWEY] | 94.5 | 24,703 luciferase units (lumens) | – | inhibitory |
| SSGCPERMASCRPIDWFA [compound 87] | 10.8 | – | 399,700 luciferase units (lumens) | – |
| PVYCFTPSPVVVGTTDRS [compound 18, PVYCFTPSPVVVGTTDRS] | 2.9 | 435,026 luciferase units (lumens) | – | – |
| CSCC[C@H](N)C(=O)N[C@@H](Cc1ccc(O)cc1)C(=O)N[C@H](C(=O)NCC(=O)NCC(=O)N[C@H](C(=O)N[C@@H](CCC(=O)O)C(=O)N[C@@H](Cc1c[nH]cn1)C(=O)N[C@@H](CCCNC(=N)N)C(=O)N[C@@H](CC(C)C)C(=O)N[C@@H](CC(N)=O)C(=O)N[C@@H](C)C(=O)N[C@@H](C)C(=O)N[C@@H](CS)C(=O)N[C@@H](CC(N)=O)C(=O)N[C@@H](Cc1c[nH]c2ccccc12)C(=O)N[C@H](C(=O)N[C@@H](CCCNC(=N)N)C(=O)O)[C@@H](C)O)C(C)C)C(C)C [compound 110, MYVGGVEHRLNAACNWTR] | −34.5 | – | 602,506 luciferase units (lumens) | – |
| HRLNAACNWTRGERCNLE [compound 111] | −39.2 | – | 632,613 luciferase units (lumens) | – |
| QVLPCSFTTLPALSTGLI [compound 41, QVLPCSFTTLPALSTGLI] | 3.0 | 434,743 luciferase units (lumens) | – | – |
| WMNSTGFTKTCGGPPCNI [compound 100] | −15.6 | – | 518,190 luciferase units (lumens) | – |
| PYCWHYAPRPCGVVPASQ [compound 91] | 69.1 | – | 160,883 luciferase units (lumens) | – |
| SPVVVGTTDRSGVPTYSW [compound 95, SPVVVGTTDRSGVPTYSW] | −20.1 | – | 538,110 luciferase units (lumens) | – |
| LFLLLADARVCSCLWMML [compound 48] | 35.1 | 290,786 luciferase units (lumens) | – | – |
| HYPCTINYTIFKVRMYVG [compound 33, HYPCTINYTIFKVRMYVG] | 95.0 | 22,406 luciferase units (lumens) | – | inhibitory |
| INTNGSWHINSTALNCNE [peptide 6, INTNGSWHINSTALNCNE] | −12.3 | 503,446 luciferase units (lumens) | – | – |
| QILPCAFTTLPALSTGLI [compound 116, QILPCAFTTLPALSTGLI] | 12.1 | – | 394,096 luciferase units (lumens) | – |
